Laboratory results from ChEMBL document CHEMBL1201862, “PubChem BioAssay data set” (2004).
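Five compound concentrations were applied to cells in 96-well plates for 48 hours; endpoints were derived by simple linear interpolation of the resulting dose-response curve. GI50 marks 50% less growth.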 The source made the active and inactive calls. No stated cut-off is given here; in the data, active = GI50 up to about 1.1 µM and inactive = higher. Residues, ends and D or L forms follow the SMILES beside them. Groups on a side chain read outwards from the residue. *: point of attachment. Cbz = O=C(OCc1ccccc1)*; Boc = CC(C)(C)OC(=O)*

Columns and labels:
Assay in all cases: NCI-60 cell line screen, 48 h
SF-295 = test system: SF-295
MOLT-4 = test system: MOLT-4
NCI-H23 = test system: NCI-H23
A549 = test system: A549
OVCAR-3 = test system: OVCAR-3
NCI/ADR-RES = test system: NCI/ADR-RES
A498 = test system: A498
OVCAR-4 = test system: OVCAR-4
SK-OV-3 = test system: SK-OV-3
HCT-116 = test system: HCT-116
SF-268 = test system: SF-268
OVCAR-8 = test system: OVCAR-8
HOP-92 = test system: HOP-92
HCT-15 = test system: HCT-15
SN12C = test system: SN12C
HT-29 = test system: HT-29
CAKI-1 = test system: CAKI-1
DU-145 = test system: DU-145
IGROV-1 = test system: IGROV-1
BT-549 = test system: BT-549

Measured: GI50

COc1cc(CNc2nc3ccccc3n2Cc2ccccc2)cc(CN2CCOCC2)c1O
inactive: SF-295 19.3 µM | MOLT-4 53.8 µM | NCI-H23 60.7 µM | A549 47.5 µM | OVCAR-3 20.6 µM | NCI/ADR-RES 23 µM | A498 21.1 µM | OVCAR-4 61.4 µM | SK-OV-3 96.8 µM | HCT-116 21.2 µM | SF-268 59.8 µM | OVCAR-8 32.1 µM | HOP-92 12.1 µM | SN12C 44.2 µM | HT-29 23.3 µM | CAKI-1 26.2 µM | DU-145 80.9 µM | IGROV-1 52 µM
29.6 µM: HCT-15

CCOC(=O)C(Cc1ccc2c(c1)CCC2)Cc1ccc2c(c1)CCC2
inactive: SF-295 89.9 µM | MOLT-4 16.9 µM | NCI-H23 69 µM | A549 > 100 µM | OVCAR-3 > 100 µM | NCI/ADR-RES 73.1 µM | A498 > 100 µM | OVCAR-4 > 100 µM | SK-OV-3 > 100 µM | HCT-116 33.3 µM | SF-268 > 100 µM | OVCAR-8 > 100 µM | HOP-92 > 100 µM | HT-29 45.9 µM | CAKI-1 > 100 µM | DU-145 > 100 µM | IGROV-1 > 100 µM
> 100 µM: HCT-15

O=C(O)c1ccccc1CC1Cc2ccccc2C1=O (stereo unspecified)
inactive: SF-295 > 100 µM | MOLT-4 > 100 µM | NCI-H23 > 100 µM | A549 > 100 µM | OVCAR-3 > 100 µM | NCI/ADR-RES > 100 µM | OVCAR-4 > 100 µM | SK-OV-3 > 100 µM | HCT-116 > 100 µM | SF-268 > 100 µM | OVCAR-8 > 100 µM | BT-549 > 100 µM | HOP-92 > 100 µM | SN12C > 100 µM | HT-29 > 100 µM | CAKI-1 > 100 µM | DU-145 > 100 µM | IGROV-1 > 100 µM
> 100 µM: HCT-15

Cc1ccc(/N=N/C(=N/NC(=O)c2ccccc2)c2ccc(N(CCC#N)CCC#N)cc2C)cc1
inactive: SF-295 21.7 µM | MOLT-4 61.1 µM | NCI-H23 52.6 µM | A549 34.3 µM | OVCAR-3 12.5 µM | NCI/ADR-RES > 100 µM | A498 19.8 µM | OVCAR-4 99.8 µM | SK-OV-3 60.3 µM | HCT-116 29.3 µM | SF-268 41.9 µM | OVCAR-8 39.4 µM | BT-549 48.3 µM | SN12C 40.8 µM | HT-29 19 µM | CAKI-1 > 100 µM | DU-145 43.2 µM | IGROV-1 29.3 µM
25.3 µM: HCT-15

CCN(CC)CCN(C(=O)C(C)(C)C)c1ccccc1N
inactive: SF-295 > 100 µM | MOLT-4 > 100 µM | NCI-H23 > 100 µM | A549 > 100 µM | OVCAR-3 > 100 µM | NCI/ADR-RES > 100 µM | OVCAR-4 > 100 µM | SK-OV-3 > 100 µM | HCT-116 > 100 µM | SF-268 > 100 µM | OVCAR-8 > 100 µM | BT-549 > 100 µM | HOP-92 > 100 µM | SN12C > 100 µM | HT-29 > 100 µM | CAKI-1 > 100 µM | DU-145 > 100 µM | IGROV-1 > 100 µM
> 100 µM: HCT-15

COC(=O)[C@]1(C)CCC[C@]2(C)[C@H]3CC[C@]4(C(C)C)OO[C@@H](O4)[C@]34O[C@@H]4C[C@H]21
inactive: SF-295 3.63 µM | MOLT-4 1.21 µM | NCI-H23 6.56 µM | A549 1.81 µM | OVCAR-3 1.8 µM | NCI/ADR-RES 3.57 µM | OVCAR-4 1.85 µM | SK-OV-3 2.32 µM | HCT-116 1.63 µM | SF-268 2.24 µM | OVCAR-8 3.61 µM | BT-549 4.81 µM | HOP-92 1.97 µM | SN12C 3.02 µM | HT-29 1.82 µM | DU-145 1.64 µM
2.16 µM: HCT-15
active: CAKI-1 0.384 µM | IGROV-1 0.157 µM

O=C(Nc1ccc(Cl)cc1)NS(=O)(=O)c1c(-c2ccccc2)oc2ccccc2c1=O
50.6 µM: HCT-15
inactive: SF-295 36.2 µM | MOLT-4 98.6 µM | NCI-H23 67 µM | A549 39 µM | NCI/ADR-RES 86.3 µM | A498 33 µM | OVCAR-4 > 100 µM | SK-OV-3 > 100 µM | HCT-116 92.7 µM | SF-268 > 100 µM | OVCAR-8 59.3 µM | HOP-92 89.3 µM | SN12C > 100 µM | HT-29 57.8 µM | CAKI-1 52.1 µM | DU-145 27.9 µM | IGROV-1 83 µM

O=c1c2c(-c3ccccc3)onc2n(-c2ccccc2)c(=O)n1-c1ccccc1
inactive: SF-295 > 100 µM | MOLT-4 > 100 µM | NCI-H23 19 µM | A549 > 100 µM | OVCAR-3 15.1 µM | NCI/ADR-RES 16.9 µM | A498 > 100 µM | OVCAR-4 32.8 µM | SK-OV-3 > 100 µM | HCT-116 > 100 µM | SF-268 30.1 µM | OVCAR-8 17.5 µM | BT-549 19.2 µM | HOP-92 > 100 µM | SN12C > 100 µM | HT-29 21 µM | CAKI-1 > 100 µM | IGROV-1 22.5 µM
15.8 µM: HCT-15

O=C(/C=C/c1ccc(O)cc1)c1ccc2c(c1)OCO2
26.1 µM: HCT-15
inactive: SF-295 21.8 µM | MOLT-4 13.5 µM | NCI-H23 18.2 µM | A549 19.4 µM | OVCAR-3 16.5 µM | NCI/ADR-RES 25.1 µM | A498 23.8 µM | OVCAR-4 21.1 µM | SK-OV-3 26.1 µM | HCT-116 12.5 µM | SF-268 23.8 µM | OVCAR-8 15.2 µM | HOP-92 22.4 µM | SN12C 15.9 µM | HT-29 13.4 µM | CAKI-1 4.56 µM | DU-145 33.4 µM | IGROV-1 15.5 µM

COc1ccc(C2C(C#N)=C(S)N(C3OC(COC(C)=O)C(OC(C)=O)C(OC(C)=O)C3OC(C)=O)C(C)=C2C(C)=O)cc1 (stereo unspecified)
> 100 µM: HCT-15
inactive: SF-295 > 100 µM | MOLT-4 20.1 µM | NCI-H23 > 100 µM | A549 70.6 µM | OVCAR-3 64.7 µM | NCI/ADR-RES > 100 µM | OVCAR-4 53 µM | SK-OV-3 > 100 µM | HCT-116 65 µM | SF-268 > 100 µM | BT-549 52.4 µM | HOP-92 30 µM | SN12C > 100 µM | HT-29 71.3 µM | CAKI-1 > 100 µM | DU-145 > 100 µM | IGROV-1 > 100 µM

O=c1[nH]c(=O)n(C2CC(O)C(CO)O2)cc1OC/C=C/Cc1ccccc1 (stereo unspecified)
> 100 µM: HCT-15
inactive: SF-295 > 100 µM | MOLT-4 > 100 µM | NCI-H23 > 100 µM | A549 > 100 µM | OVCAR-3 > 100 µM | NCI/ADR-RES > 100 µM | OVCAR-4 > 100 µM | SK-OV-3 > 100 µM | HCT-116 > 100 µM | SF-268 > 100 µM | OVCAR-8 > 100 µM | BT-549 > 100 µM | SN12C > 100 µM | HT-29 > 100 µM | CAKI-1 > 100 µM | DU-145 > 100 µM | IGROV-1 > 100 µM

N#CC(=N)c1ncn(-c2ccc(N)cc2)c1N
> 100 µM: HCT-15
inactive: SF-295 > 100 µM | MOLT-4 > 100 µM | NCI-H23 > 100 µM | A549 > 100 µM | OVCAR-3 > 100 µM | NCI/ADR-RES > 100 µM | A498 > 100 µM | OVCAR-4 > 100 µM | SK-OV-3 > 100 µM | HCT-116 > 100 µM | SF-268 > 100 µM | OVCAR-8 > 100 µM | BT-549 > 100 µM | SN12C > 100 µM | HT-29 > 100 µM | CAKI-1 > 100 µM | DU-145 > 100 µM | IGROV-1 > 100 µM

CCOC(=O)[C@@H]1C[C@@H]1c1ccc(O)c(O)c1
inactive: SF-295 59.7 µM | MOLT-4 6.18 µM | NCI-H23 43.4 µM | A549 29.4 µM | OVCAR-3 16.6 µM | NCI/ADR-RES 46.6 µM | SK-OV-3 44.8 µM | HCT-116 16.3 µM | SF-268 30.8 µM | OVCAR-8 21.8 µM | BT-549 19.7 µM | HOP-92 36.7 µM | SN12C 78.2 µM | HT-29 50.2 µM | CAKI-1 38.1 µM | DU-145 64 µM | IGROV-1 35.3 µM
45.5 µM: HCT-15

O=C(Nn1c(-c2cccs2)nc2ccc(I)cc2c1=O)c1ccccc1
30.6 µM: HCT-15
inactive: SF-295 26.9 µM | MOLT-4 41.3 µM | NCI-H23 21.2 µM | A549 18.8 µM | OVCAR-3 16.9 µM | NCI/ADR-RES 31.8 µM | OVCAR-4 23 µM | HCT-116 35.3 µM | SF-268 34.4 µM | OVCAR-8 39 µM | BT-549 16.4 µM | HOP-92 17.8 µM | SN12C 35.6 µM | HT-29 29.8 µM | CAKI-1 21.9 µM | DU-145 20.6 µM | IGROV-1 20.2 µM

CC(C)CC(NC(=O)OCc1ccccc1)C(=O)NCCCCC(NC(=O)C(CCCCNC(=O)C(CC(C)C)NC(=O)OCc1ccccc1)NC(=O)C(CCCCNC(=O)C(CC(C)C)NC(=O)OCc1ccccc1)NC(=O)C(CCCCNC(=O)C(CC(C)C)NC(=O)OCc1ccccc1)NC(=O)OC(C)(C)C)C(=O)O (stereo unspecified) (Boc-K([Leu-Cbz])K([Leu-Cbz])K([Leu-Cbz])K([Leu-Cbz])-OH; configuration not given here)
inactive: MOLT-4 > 25 µM | NCI-H23 > 25 µM | A549 > 25 µM | OVCAR-3 > 25 µM | A498 > 25 µM | OVCAR-4 > 25 µM | HCT-116 > 25 µM | SF-268 > 25 µM | OVCAR-8 > 25 µM | BT-549 > 25 µM | SN12C > 25 µM | HT-29 > 25 µM | CAKI-1 > 25 µM | DU-145 > 25 µM | IGROV-1 > 25 µM
> 25 µM: HCT-15
